Read-outs that look alike come from different tables or passages of the source.

This is an account of results in patent US11925678B2, “Methods for diagnosing and treating Alzheimer's disease” (Cava Healthcare Inc., priority 2011, dated 2024).

One data set relates to Tg2576 (Tg/+) mice. As to the kind of experiment: Microvessel density (MVD) by CD105 staining in immunized mice. In kind it is in vivo, mouse. The note with it: for microvessel density (MVD), ratio of TFA to total area of imaged field: CD105 staining, mean±SEM. The procedure: (§1) Injections were performed i.p.
Microvessel density (MVD) was quantified by confocal microscopy using the methods developed by Guo et al. (Angiogenesis 4, 187-191 with minor modifications). Using CD105 as a marker of angiogenic cerebrovasculature (Masliah et al. (2005) Neurology 64, 129-131), images of optimal fluorescent intensity were acquired and analyzed using the Zeiss LSM510 Meta software. Areas within the brain section containing high density (“hotspots”) (Bombois et al. (2007) Arch Neurol 64, 583-587) CD105 staining were imaged using the 20×/0.45 N-Achroplan objective using the confocal imaging parameters mentioned previously. The total fluorescence area (TFA) in μm^2 was integrated above background, by the software, for each hotspot. The average TFA from four different hotspots per mouse was quantified. The TFA was used as a numerical representation of the total microvessels stained by the CD105 antibody. The MVD of the imaged field was expressed as a ratio of the TFA to the total area of the image.
Microvessel density quantification: Microvessel density was quantified by confocal microscopy using the methods described previously Biron et al., PLoS ONE 6, e23789 (2011)). Using CD105 as a marker of angiogenic cerebrovasculature (Holley et al. Neurosci Lett 470, 65-70 (2010)), images of optimal fluorescent intensity were acquired and analyzed using the Zeiss LSM510 Meta software. Areas within the brain section containing high density (“hotspots”) CD105 staining were imaged using the 20×/0.45 N-Achroplan objective using the confocal imaging parameters mentioned previously. The total fluorescence area (TFA) in μm^2 was integrated above background, by the software, for each hotspot. The average TFA from four different hotspots per mouse was quantified. The TFA was used as a numerical representation of the total microvessels stained by the CD105 antibody. The microvascular density of the imaged field was expressed as a ratio of the TFA to the total area of the image.

For data set [1], the system named is Tg2576 mice. As to the kind of experiment: Apoptosis by activated caspase-3 staining in immunized mice. In kind it is in vivo, mouse. The procedure: as §1
An anti-activated caspase-3 antibody was used as a marker of apoptosis FIG. 9. […] PBS immunized Tg2576 mice, both preventative and therapeutic, had significant activated caspase-3 staining within the FIG. 9a cortex and hippocampus (not shown) that tended to surround probable abeta plaques. […] The overall density of activated caspase-3 staining in these mice was noted to be lower than the Tg2576 treated with abeta. […] Cortex activated caspase-3 staining appear similar in the abeta immunized Tg2576 to the wild-type variants.

The subject of data set [2] is Tg2576 (Tg/+) and wild-type (+/+) mice. The settings on record: for tight junction abnormalities compared to PBS immunized controls (qualitative) / TJ expression in microvessels/capillaries (qualitative) / incidence of TJ disruption (percentage of blood vessels with abnormal TJ morphology) / TJ expression in larger vessels (qualitative): Tg2576 mice; for tight junction abnormalities compared to PBS immunized controls (qualitative): cortex and hippocampus; for TJ expression in microvessels/capillaries (qualitative): preventative and therapeutic immunization; for incidence of TJ disruption (percentage of blood vessels with abnormal TJ morphology): mean±SEM; for TJ expression in larger vessels (qualitative): preventative or therapeutic immunization.
Method: (§2) Briefly, two separate vaccination strategies were carried out, therapeutic and preventative. Prior to immunization, mice were bled from the saphenous vein and serum collected. In the preventative approach, mice were vaccinated beginning at 6 weeks of age and sacrificed at 12 months. Mice used in the therapeutic strategy were vaccinated beginning at 11 months of age and sacrificed at 15 months. Abeta peptide was freshly prepared from lyophilized powder for each set of injections. For immunizations, 2 mg of abeta (human abeta1-40, Bachem) was added to 0.9 mL of deionized water and thoroughly mixed. Then 100 μL of 10×PBS was added to obtain a final 1×PBS concentration. The solution was vortexed and placed at 37° C. overnight until use the next day. Abeta1-40 (100 μg antigen per injection) or PBS (control) was mixed 1:1 (v/v) with complete Freund's adjuvant (CFA) for the first immunization. This was followed by a boost with abeta1-40 (100 μg) or PBS mixed 1:1 (v/v) with incomplete Freund's adjuvant (ICFA) at two weeks and monthly thereafter. From the fifth immunization onward, straight PBS or abeta were injected. Injections were performed i.p.
Dewaxed paraffin sections underwent antigen retrieval using a conventional stovetop pressure cooker using 20 mM Tris with 0.7 mM EDTA buffer (pH 9.0) at full steam for 2 minutes. Cooled slides were then incubated in blocking buffer (25% normal goat serum; 3% BSA; 0.3% Triton X-100, Sigma) for 1 hour at room temperature. Primary antibodies used included rabbit anti-ZO-1 (1:200, Invitrogen), mouse anti-ZO-1 (1:200, Invitrogen), rabbit anti-occludin (1:200, Invitrogen), rabbit anti-activated caspase-3 (1:1000, Imgenex), and mouse anti-human CD105 (1:20, DAKO). Primary antibody staining was performed overnight at 4C in staining buffer (10% normal goat serum; 3% BSA; 0.3% Triton X-100). Normal donkey serum was used when staining with goat primary antibodies. Secondary antibodies used were complimentary to the species of the primary conjugated with either Alexa Fluor dyes 488 or 568 (1:500, Invitrogen). Secondary antibody staining was performed at room temperature for 1 hour in staining buffer. TOTO-3 (1:10000, Invitrogen) was used for nuclear counterstaining. Sections were washed in PBS with 0.1% Tween-20 (Sigma) three times for 5 minutes each between staining steps. Stained sections were coverslipped using Fluoromount-G (Southern Biotech) and allowed to air dry in the dark overnight.
Brain sections were analyzed from paraffin blocks from every fifth section. Images taken on a Zeiss LSM510 Meta (Zeiss, Germany), were acquired with 16 slices, averaged four times, through the Z-plane using a 40×/1.3 oil-immersion Plan-Neofluor objective. The composite projected image was imported into Adobe Photoshop, at 600 dpi, and optimized for contrast and brightness. Quantitative analysis of tight junction morphology was analyzed according the methodology developed by Plumb et al. (Brain Pathol 12, 154-169). Confocal data sets represented approximately 100 cerebral blood vessels from both young and aged Tg2576 and littermate controls in the frontal cortex and hippocampus. Individual vessels were scored as either normal (1) or abnormal (0) for ZO-1 expression. Normal ZO-1 expression was judged as strong, continuous, intense and linear staining. In contrast, abnormal ZO-1 expression was judged as weak, punctate and/or discontinuous staining. […] To minimize the recording of incomplete or undulating vessels as abnormal, due to observed “gaps” in ZO-1 staining, evidence of vessel continuity was sought in the images. For example, the presence of stained nuclei (with TOTO-3) or punctate or diffuse ZO-1 remnants was used to localize the position of abnormal gaps along the vessel tract.

For data set [3], the system named is Tg2576 and wild-type mice.
Method: as §2
Tg2576 and wild-type mice immunized, preventatively or therapeutically, with either abeta or PBS were assessed for cerebrovascular leakage and TJ abnormalities by confocal microscopy. Mouse albumin was used as a marker for vascular leakage and was visualized as diffuse gradient staining emanating away from vessels FIG. 8b (white arrowhead).
Data set [4] concerns Tg2576 mice.
Method: Briefly, two separate vaccination strategies were carried out, therapeutic and preventative. […] In the preventative approach, mice were vaccinated beginning at 6 weeks of age and sacrificed at 12 months. Mice used in the therapeutic strategy were vaccinated beginning at 11 months of age and sacrificed at 15 months. Abeta peptide was freshly prepared from lyophilized powder for each set of injections. For immunizations, 2 mg of abeta (human abeta1-40, Bachem) was added to 0.9 mL of deionized water and thoroughly mixed. Then 100 μL of 10×PBS was added to obtain a final 1×PBS concentration. The solution was vortexed and placed at 37° C. overnight until use the next day. Abeta1-40 (100 μg antigen per injection) or PBS (control) was mixed 1:1 (v/v) with complete Freund's adjuvant (CFA) for the first immunization. This was followed by a boost with abeta1-40 (100 μg) or PBS mixed 1:1 (v/v) with incomplete Freund's adjuvant (ICFA) at two weeks and monthly thereafter. From the fifth immunization onward, straight PBS or abeta were injected. Injections were performed i.p.
Aβ was imaged with a Zeiss LSM 710 Laser Scanning.
The conditions of data set [5]: mouse, in vivo.
Method: Mice were terminally anesthetized with ketamine/xylazine (100 mg/kg; 10 mg/kg) and perfused with PBS for 5 minutes. Brains were then rapidly excised, olfactory bulbs and cerebellum removed, weighed and post-fixed in 4% paraformaldehyde for four days at 4° C. The brains were then imbedded in paraffin and sectioned serially at 5 μm. […] Average brain weights were compared amongst the immunized mice by comparing brain to body mass ratios.
Data set [6] has as its system Tg2576 mice. The settings on record: cited from earlier work.
The next data set deals with animal models of AD. The settings on record: cited from earlier work.
Another data set concerns endothelial cells. The settings on record: cited from earlier work.
[7] abbreviates: Tg2576 mice, preventative and therapeutic.

As for human abeta1-40, the “microvessel density (MVD), ratio of TFA to total area of imaged field” value in the data set with Tg2576 (Tg/+) mice (Tg2576 mice immunized preventatively) was 0.1972±0.0075; in the data set with Tg2576 (Tg/+) mice (Tg2576 mice immunized therapeutically (after disease onset)), 0.2180±0.0130. For the same compound, the “microvascular density compared to PBS controls (qualitative)” value with Tg2576 (Tg/+) mice (setting [7]) is reported as “reduced microvascular density”. In the data set with Tg2576 mice [1] (Tg2576 mice), the “distribution of activated caspase-3 staining” value is “hippocampal restricted caspase-3 staining”. In the data set with Tg2576 mice [1] (Tg2576 mice (FIG. 9)), the “activated caspase-3 staining (qualitative, overall)” value is listed as “reduced activated caspase-3 staining”. The “activated caspase-3 staining in cortex” value in the data set on Tg2576 mice [1] (setting [7]) was “limited caspase-3 staining”. Besides, in data set [2] (Example 3, Tg/+ mice immunized preventatively from 6 weeks of age, neocortex and hippocampus), the “percentage of abnormal vascular TJ expression” value is on record as roughly 10%. Moreover, the “percentage of abnormal vascular TJ expression (TJ pathology)” value in [2] (Example 3, Tg/+ mice immunized therapeutically at 11 months of age, neocortex and hippocampus) was roughly 10%. For the same compound, the “tight junction abnormalities compared to PBS immunized controls (qualitative)” value in data set [2] is on record as “reduced tight junction abnormalities”; in [2] (listed as Abeta), “markedly reduced TJ pathology”; in data set [2] (listed as Aβ), “reduced tight junction abnormalities”. In addition, the “TJ expression in microvessels/capillaries (qualitative)” value in [2] was “normal TJs”; in data set [2] (listed as Aβ) it was “normal ZO-1 expression in the capillaries”. Besides, the “incidence of TJ disruption (percentage of blood vessels with abnormal TJ morphology)” value in data set [2] (preventative immunization (6 weeks to 12 months), cortex) was 11.33±2.40%; in [2] (preventative immunization, hippocampus), 11.91±1.73%; in data set [2] (therapeutic immunization (11 to 15 months), cortex), 10.40±0.81%; in data set [2] (therapeutic immunization, hippocampus), 11.00±2.26%. In addition, the “TJ expression in larger vessels (qualitative)” value is given as “larger proportion of abnormal TJ expression” in data set [2] and “some abnormal TJ pathology mainly in larger vessels” in data set [2] (listed as Aβ). For the same compound, the “overall vascular leakage (qualitative)” value in data set [3] (Tg2576 mice, preventatively immunized (FIG. 8)) was “overall reduced vascular leakage”. The “vascular leakage in larger vessels (mouse albumin)” value in data set [3] (mouse, in vivo) is “periodic vascular leakage”. For the same compound, the “vascular leakage in wild-type mice” value in data set [3] (mouse, in vivo) is “no vascular leakage”. Further, the “abeta deposition in cerebral capillaries” value in the data set with Tg2576 mice [4] (Tg2576 mice) is “No abeta deposition”. Besides, the “parenchymal Aβ plaques” value in the data set on Tg2576 mice [4] (Tg/+ mice preventatively immunized) is reported as “complete elimination”. Further, the Aβ plaque pathology result with Tg2576 mice [4] (Tg/+ mice therapeutically treated) is listed as “dramatic decrease”. Also, in the data set with Tg2576 mice [4] (Tg/+ mice, therapeutic or preventative (FIG. 14)), the “Aβ deposits compared to Tg/+, PBS (qualitative)” value was “general reduction of Aβ deposits”. Besides, the “vascular abeta deposition in larger vessels” value in the data set on Tg2576 mice [4] (mouse, in vivo) is on record as “Mild vascular abeta deposition”. The “average brain to body weight ratio (difference between groups)” value in data set [5] is “did not reach significance”. The “plaque burdens and microgliosis” value in the data set with Tg2576 mice [6] (Tg2576 mice) is listed as “significantly reduced”. Besides, the “immune response: anti-abeta antibody titres” value with Tg2576 mice [6] (mice immunized preventatively or therapeutically) is reported as “increase in anti-abeta antibody titres”. In the data set with Tg2576 mice [6] (post-abeta immunized Tg2576 mice), the “global integrity of the BBB” value was “improves significantly”.
Turning to `C=C(c1ccc(C(=O)O)cc1)c1cc2c(cc1C)C(C)(C)CCC2(C)C` [bexarotene], in the data set with animal models of AD, the memory performance entry is on record as “increase memory performance” and the plaque burden result is “reduce plaque burden”. In the data set with endothelial cells, the “angiogenesis (proliferation, adhesion, invasion and migration of endothelial cells)” value is reported as “inhibits angiogenesis”.
